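Test compounds were applied to cells in 96-well plates for 48 hours at 5 doses. GI50 = concentration required for 50% inhibition of growth. TGI: total growth inhibition.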 A value given as a limit tells only on which side of the number the result lay.

Among the data in PubChem BioAssay (NCI) are TGI and GI50 values, retold here.

Experiment in all cases: NCI tumour cell line growth inhibition, 48 h
Test [1] relates to 786-0 renal.
Test [2] concerns CAKI-1 renal.
For test [3], the system named is HOP-92 NSCLC.
For test [4], the system named is M14 melanoma.
Test [5] has as its system MOLT-4 leukemia.
Test [6] concerns NCI-H23 lung.
Test [7] relates to NCI-H522 lung.
Test [8] relates to RPMI-8226 leukemia.
Test [9] concerns SN12C renal.
Test [10] relates to SNB-19 CNS.

Turning to `O=S(=O)(Cc1ccccc1)SCc1ccccc1`, the TGI in test [1] was 51.5 µM; in [2], > 86.2 µM; in test [3], 51.2 µM; in test [4] it was 27.6 µM; in [5], 14.3 µM; in test [6] it was 52.7 µM. In addition, the TGI is 25.2 µM in test [7], 61.6 µM in [8], 58 µM in test [9] and > 100 µM in test [10].
Regarding `Oc1ccc(-c2[nH]c3ccccc3c2-c2nc3ccccc3o2)cc1`, the GI50 in test [1] was 4.4 µM; in test [2], 2.62 µM; in [3] it was 2.73 µM; in [4] it was 3.26 µM; in test [5], 6.49 µM; in [6], 2.26 µM. In addition, the GI50 in test [7] is 2.83 µM; in test [8], 14.3 µM; in test [9], 4.88 µM; in test [10], 6.77 µM. The TGI in [1] was 15.2 µM; in test [2], 14.2 µM; in test [3] it was 15.9 µM; in [4] it was 13.8 µM; in [5], 41.3 µM; in test [6] it was 9.88 µM. Moreover, the TGI in [7] was 9.65 µM; in test [8], 52.3 µM; in test [9] it was 18.5 µM; in [10] it was 22.1 µM.
For the compound `O=C(Nc1nc2c(s1)CCc1c-2c(Br)n(Cc2ccccc2)c1Br)c1ccccc1`, the GI50 is 2.73 µM in test [1]; 9.89 µM in test [2]; 1.2 µM in test [3]; 9.94 µM in test [4]; 22.7 µM in [5]; 8.03 µM in test [6]. The GI50 is 4.41 µM in test [7], 11.4 µM in test [8], 10 µM in test [9] and 7.41 µM in test [10]. Besides, the TGI in [1] is 11.9 µM; in [2], > 100 µM; in test [3] it was 4.63 µM; in test [4], > 100 µM; in test [5] it was 64.4 µM; in test [6], > 100 µM. Further, the TGI was 32.5 µM in [7], > 100 µM in [8], > 100 µM in test [9] and > 100 µM in [10].
On to `CCOC(=O)c1cc2cc(OCc3ccccc3)ccc2[nH]1`, for which the GI50 in [1] was > 100 µM; in test [2] it was > 100 µM; in test [3], 62.3 µM; in [4], > 100 µM; in test [5], 36.7 µM; in test [6], > 100 µM. In addition, the GI50 in test [7], in test [8], in test [9] and in [10] was > 100 µM each time. Further, the TGI in test [1], in [2], in test [3], in test [4], in test [5] and in test [6] was > 100 µM throughout. In addition, the TGI in test [7], in test [8], in test [9] and in test [10] was > 100 µM each time.
With `CC(=O)OC1COC(Oc2c(C)c3c4c(c2O)[C@@H](C)CC[C@@H]4[C@@H](C)C[C@H]3C=C(C)C)C(O)C1O` (stereo not given in full), the GI50 in [1] is 19.2 µM; in [2], 16 µM; in test [3] it was 18.7 µM; in test [4], 13 µM; in test [5], 2.24 µM; in [6], 16.6 µM. The GI50 in [7] was 30.5 µM; in [8], 16.6 µM; in test [9], 20.8 µM; in test [10] it was 28.8 µM. Moreover, the TGI in test [1] is 43.2 µM; in test [2], 30.9 µM; in test [3] it was 36.3 µM; in test [4] it was 28.6 µM; in test [5], 22.5 µM; in test [6] it was 33.2 µM. Also, the TGI in test [7] was > 100 µM; in test [8], 39.5 µM; in test [9], 46.8 µM; in [10] it was 73.7 µM.
Regarding `CC1=NN(c2nc(N)nc(/C=C\c3ccccc3)n2)C(C)(C)C1`, the GI50 was 15 µM in test [1]; 15.4 µM in test [2]; 19.5 µM in test [3]; 9.76 µM in test [4]; 13 µM in test [5]; 4.37 µM in [6]. In addition, the GI50 is 3.14 µM in [7], 3.02 µM in test [8], 13.1 µM in test [9] and 20.3 µM in test [10]. Moreover, the TGI in [1] amounted to 29.3 µM; in test [2], 30.9 µM; in test [3] it was 39.5 µM; in [4], 23.7 µM; in test [5], 40.7 µM; in test [6], 18 µM. The TGI in test [7] amounted to 13.5 µM; in [8], 15 µM; in test [9], 26.6 µM; in test [10], 42.9 µM.
Take `CN1CC[C@]23c4c5ccc(O)c4OC2c2[nH]ncc2C[C@H]3[C@H]1C5` (stereo not given in full): the TGI in test [1], in test [2], in test [3], in [4], in test [5] and in test [6] was > 100 µM in each case. The TGI in test [7], in [8], in test [9] and in test [10] was > 100 µM in each case.
On to `Nc1nc(-c2ccccc2)cc(-c2cc(Cl)ccc2O)n1`, for which the TGI in [1], in test [2], in test [3], in test [4], in [5] and in [6] was > 100 µM in each case. In addition, the TGI in test [7] is 99.7 µM; in test [8] it was > 100 µM; in test [9], > 100 µM; in [10] it was > 100 µM.
In the case of `CCN(CC)CCS(=O)(=O)CCNc1ccnc2cc(Cl)ccc12`, the GI50 in test [1] was 2.84 µM; in test [2] it was 0.782 µM; in [3] it was 0.619 µM; in test [4], 2.53 µM; in test [5], 1.34 µM; in test [6], 2.1 µM. Also, the GI50 in test [7] was 0.758 µM; in test [8], 1.41 µM; in test [9], 3.25 µM; in test [10], 6.69 µM. In addition, the TGI came out at 19.9 µM in test [1]; 6.08 µM in test [2]; 7.39 µM in test [3]; 9.33 µM in test [4]; 49 µM in test [5]; 14.9 µM in [6]. Moreover, the TGI in [7] is 2.11 µM; in test [8], 21.6 µM; in [9] it was > 100 µM; in [10] it was > 100 µM.
